From ChEMBL document CHEMBL1144507, “Synthesis and antifungal activity of (Z)-5-arylidenerhodanines” (2007)
Converted amounts (≈) assume the structure as drawn.

How the values were obtained:
Cryptococcus neoformans [1] = assay: Antifungal activity against Cryptococcus neoformans ATCC 32264 after 48 hrs; assay type: functional; settings: ATCC 32264, 48 h
Aspergillus flavus = assay: Antifungal activity against Aspergillus flavus ATCC 9170 after 48 hrs; assay type: functional; settings: ATCC 9170, 48 h
Aspergillus fumigatus = assay: Antifungal activity against Aspergillus fumigatus ATCC 26934 after 48 hrs; assay type: functional; settings: ATCC 26934, 48 h
Aspergillus niger = assay: Antifungal activity against Aspergillus niger ATCC 9029 after 48 hrs; assay type: functional; settings: ATCC 9029, 48 h
Saccharomyces cerevisiae = assay: Antifungal activity against Saccharomyces cerevisiae ATCC 9763 after 48 hrs; assay type: functional; settings: ATCC 9763, 48 h
Candida albicans [2] = assay: Antifungal activity against Candida albicans ATCC 10231 after 48 hrs; assay type: functional; settings: ATCC 10231, 48 h
Trichophyton benhamiae = assay: Antifungal activity against Trichophyton mentagrophytes ATCC 9972 after 48 hrs; assay type: functional, Arthroderma benhamiae; settings: ATCC 9972, 48 h
Nannizzia gypsea = assay: Antifungal activity against Microsporum gypseum C115 after 48 hrs; assay type: functional
Trichophyton rubrum = assay: Antifungal activity against Trichophyton rubrum C113 after 48 hrs; assay type: functional
Cryptococcus neoformans [3] = assay: Antifungal activity against […] IM 031631 after 48 hrs; assay type: functional
Cryptococcus neoformans [4] = assay: Antifungal activity against […] IM 052470 after 48 hrs; assay type: functional
Cryptococcus neoformans [5] = assay: Antifungal activity against […] IM 983036 after 48 hrs; assay type: functional
Cryptococcus neoformans [6] = assay: Antifungal activity against […] IM 972724 after 48 hrs; assay type: functional
Cryptococcus neoformans [7] = assay: Antifungal activity against […] IM 031706 after 48 hrs; assay type: functional
Cryptococcus neoformans [8] = assay: Antifungal activity against […] IM 042074 after 48 hrs; assay type: functional
Cryptococcus neoformans [9] = assay: Antifungal activity against […] IM 972751 after 48 hrs; assay type: functional
Cryptococcus neoformans [10] = assay: Antifungal activity against […] IM 961951 after 48 hrs; assay type: functional
Cryptococcus neoformans [11] = assay: Antifungal activity against Candida neoformans IM 983040 after 48 hrs; assay type: functional
Candida albicans [12] = assay: Antifungal activity against Candida albicans C127-2000 after 48 hrs; assay type: functional
Candida albicans [13] = assay: Antifungal activity against Candida albicans C126-2000 after 48 hrs; assay type: functional
Torulaspora delbrueckii = assay: Antifungal activity against Candida coliculosa C122-2000 after 48 hrs; assay type: functional
Candida albicans [14] = assay: Antifungal activity against Candida albicans C130-2000 after 48 hrs; assay type: functional
Candida parapsilosis = assay: Antifungal activity against Candida parapsilosis C124-2000 after 48 hrs; assay type: functional; settings: Lodderomyces parapsilosis
Cryptococcus neoformans [15] = assay: Antifungal activity against […] ATCC 32264 after 48 hrs; assay type: functional; settings: ATCC 32264, 48 h
Pichia kudriavzevii = assay: Antifungal activity against Candida krusei C117-2000 after 48 hrs; assay type: functional
Candida tropicalis = assay: Antifungal activity against Candida tropicalis C131-1997 after 48 hrs; assay type: functional
Candida albicans [16] = assay: Antifungal activity against Candida albicans C128-2000 after 48 hrs; assay type: functional
Cryptococcus neoformans [17] = assay: Antifungal activity against […] IM 00319 after 48 hrs; assay type: functional
Kluyveromyces marxianus = assay: Antifungal activity against Candida kefyr C123-2000 after 48 hrs; assay type: functional
Nakaseomyces glabratus = assay: Antifungal activity against Candida glabrata C115-2000 after 48 hrs; assay type: functional
Clavispora lusitaniae = assay: Antifungal activity against Candida lusitaniae C131-2000 after 48 hrs; assay type: functional
Candida albicans [18] = assay: Antifungal activity against Candida albicans C125-2000 after 48 hrs; assay type: functional
[19] = Cryptococcus neoformans, 48 h, read-out: MFC

SMILES	MIC (Cryptococcus neoformans [1]) [µg/mL]	MIC (Aspergillus flavus) [µg/mL]	MIC (Aspergillus fumigatus) [µg/mL]	MIC (Aspergillus niger) [µg/mL]	MIC (Saccharomyces cerevisiae) [µg/mL]	MIC (Candida albicans [2]) [µg/mL]	MIC (Trichophyton benhamiae) [µg/mL]	MIC (Nannizzia gypsea) [µg/mL]	MIC (Trichophyton rubrum) [µg/mL]	MFC (Cryptococcus neoformans [4]) [µg/mL]	MFC (Cryptococcus neoformans [5]) [µg/mL]	MFC (Cryptococcus neoformans [6]) [µg/mL]	MFC (Cryptococcus neoformans [7]) [µg/mL]	MFC (Cryptococcus neoformans [8]) [µg/mL]	MFC (Cryptococcus neoformans [9]) [µg/mL]	MFC (Cryptococcus neoformans [10]) [µg/mL]	MFC (Cryptococcus neoformans [11]) [µg/mL]	also measured
O=C1NC(=S)S/C1=C\c1ccccc1F	15.6 (≈ 65.2 µM)	> 250	> 250	> 250	250 (≈ 1040 µM)	250 (≈ 1040 µM)	3.9 (≈ 16.3 µM)	3.9 (≈ 16.3 µM)	3.9 (≈ 16.3 µM)									
Nc1nc(=O)[nH]cc1F [FLUCYTOSINE]										7.8 (≈ 60.4 µM)	7.8 (≈ 60.4 µM)	3.9 (≈ 30.2 µM)	7.8 (≈ 60.4 µM)	3.9 (≈ 30.2 µM)	15.6 (≈ 121 µM)	3.9 (≈ 30.2 µM)	7.8 (≈ 60.4 µM)	MFC (Cryptococcus neoformans [3]; [19]): 7.8 µg/mL (≈ 60.4 µM)
C[C@@H]1[C@H](O)[C@@H](C)/C=C/C=C/C=C/C=C/C=C/C=C/C=C/[C@H](O[C@@H]2O[C@H](C)[C@@H](O)[C@H](N)[C@@H]2O)C[C@@H]2O[C@](O)(C[C@@H](O)C[C@@H](O)[C@H](O)CC[C@@H](O)C[C@@H](O)CC(=O)O[C@H]1C)C[C@H](O)[C@H]2C(=O)O [AMPHOTERICIN B]										0.5 (≈ 0.541 µM)	0.13 (≈ 0.141 µM)	0.06 (≈ 0.0649 µM)	0.25 (≈ 0.271 µM)	0.25 (≈ 0.271 µM)	0.25 (≈ 0.271 µM)	0.06 (≈ 0.0649 µM)	0.13 (≈ 0.141 µM)	MFC (Candida albicans [12]): 0.78 µg/mL (≈ 0.844 µM); MFC (Cryptococcus neoformans [3]; [19]): 0.13 µg/mL (≈ 0.141 µM); MFC (Candida albicans [13]): 1.56 µg/mL (≈ 1.69 µM); MFC (Torulaspora delbrueckii): 0.36 µg/mL (≈ 0.39 µM); MFC (Candida albicans [14]): 0.78 µg/mL (≈ 0.844 µM); MFC (Candida parapsilosis): 0.78 µg/mL (≈ 0.844 µM); MFC (Cryptococcus neoformans [15]): 0.25 µg/mL (≈ 0.271 µM); MFC (Pichia kudriavzevii): 0.39 µg/mL (≈ 0.422 µM); MFC (Candida tropicalis): 0.5 µg/mL (≈ 0.541 µM); MFC (Candida albicans [16]): 1.56 µg/mL (≈ 1.69 µM); MFC (Cryptococcus neoformans [17]): 0.25 µg/mL (≈ 0.271 µM); MFC (Kluyveromyces marxianus): 0.78 µg/mL (≈ 0.844 µM); MFC (Nakaseomyces glabratus): 0.39 µg/mL (≈ 0.422 µM); MFC (Clavispora lusitaniae): 0.39 µg/mL (≈ 0.422 µM); MFC (Candida albicans [18]): 0.78 µg/mL (≈ 0.844 µM)
C[C@@H](c1ncncc1F)[C@](O)(Cn1cncn1)c1ccc(F)cc1F [VORICONAZOLE]										0.03 (≈ 0.0859 µM)	< 0.015	< 0.015	0.5 (≈ 1.43 µM)	< 0.015	0.03 (≈ 0.0859 µM)	0.015 (≈ 0.0429 µM)	< 0.015	MFC (Cryptococcus neoformans [3]): 0.25; MFC (Cryptococcus neoformans [17]): < 0.015 µg/mL
O=C1NC(=S)S/C1=C\c1ccc(Br)cc1	62.5 (≈ 208 µM)	> 250	> 250	> 250	250 (≈ 833 µM)	> 250	> 250	> 250	> 250									

The next lines start with results.

MIC (Cryptococcus neoformans [1]) [µg/mL]	MIC (Aspergillus flavus) [µg/mL]	MIC (Aspergillus fumigatus) [µg/mL]	MIC (Aspergillus niger) [µg/mL]	MIC (Saccharomyces cerevisiae) [µg/mL]	MIC (Candida albicans [2]) [µg/mL]	MIC (Trichophyton benhamiae) [µg/mL]	MIC (Nannizzia gypsea) [µg/mL]	MIC (Trichophyton rubrum) [µg/mL]	SMILES	MFC (Cryptococcus neoformans [4]) [µg/mL]	MFC (Cryptococcus neoformans [5]) [µg/mL]	MFC (Cryptococcus neoformans [6]) [µg/mL]	MFC (Cryptococcus neoformans [7]) [µg/mL]	MFC (Cryptococcus neoformans [8]) [µg/mL]	MFC (Cryptococcus neoformans [9]) [µg/mL]	MFC (Cryptococcus neoformans [10]) [µg/mL]	MFC (Cryptococcus neoformans [11]) [µg/mL]	also measured
> 250	> 250	> 250	> 250	> 250	> 250	> 250	> 250	> 250	COc1ccc(/C=C2\SC(=S)NC2=O)cc1									
> 250	> 250	> 250	> 250	> 250	> 250	> 250	> 250	> 250	COc1ccc(/C=C2\SC(=S)NC2=O)c(OC)c1OC									
